Measurements reported in ChEMBL document CHEMBL1130002, “Synthesis and biological evaluation of the 1,5-diarylpyrazole class of cyclooxygenase-2 inhibitors: identification of 4-[5-(4-methylphenyl)-3-(trifluoromethyl)-1H-pyrazol-1-yl]benze nesulfonamide (SC-58635, celecoxib)” (J Med Chem, 1997).

Experiments:
[1] = species: Rattus norvegicus; assay: animal or person; assay type: functional
[2] = species: Rattus norvegicus; assay type: functional, Stomach
Description: Concentration at which gastric damage will occur was determined in rat

[3] = species: Rattus norvegicus; assay: animal or person; conditions: read-out: Inhibition
Description: Percent inhibition was determined in vivo in male Dawley rats at a dose of 10 mg/kg by rat carrageenan-induced hyperalgesia assay

[4] = species: Rattus norvegicus; assay: animal or person; assay type: functional; remark: listed apart in the source
Description: Effective dose was determined in vivo in male lewis rats by rat adjuvant-induced arthritis assay

[5] = in vivo; conditions: male, rat, iv, 10 mg/kg
[6] = species: Rattus norvegicus; assay: animal or person; assay type: functional; remark: listed apart in the source
Description: Effective dose was determined in vivo in male Dawley rats by rat carrageenan-induced hyperalgesia assay

[7] = in vivo; conditions: male, rat, po, 10 mg/kg
[8] = in vivo; conditions: male, rat, po, 20 mg/kg
[9] = species: Rattus norvegicus; assay: animal or person; assay type: functional; remark: listed apart in the source
[10] = in vivo; conditions: male, rat, po, 10 mg/kg; remark: listed apart in the source

| Compound | ED50 [1] [mg/kg] | ED50 [4] [mg/kg] | half-life [5] [min] | ED50 [6] [mg/kg] | also measured |
| --- | --- | --- | --- | --- | --- |
| COc1ccc2cc([C@H](C)C(=O)O)ccc2c1 [NAPROXEN] | 1.6 | – | – | – | Ulceration [2]: 255 mg/kg; inhibition in vivo at 10 mg/kg [3]: 66% |
| Cc1ccc(-c2cc(C(F)(F)F)nn2-c2ccc(S(N)(=O)=O)cc2)cc1 [CELECOXIB] | 7.1 | 0.37 | 210 | 34.5 | – |
| NS(=O)(=O)c1ccc(-n2nc(C(F)(F)F)c(Cl)c2-c2ccc(Cl)cc2)cc1 | 8.8 | 0.006 | – | – | – |
| COc1ccc(-c2cc(C(F)(F)F)nn2-c2ccc(S(N)(=O)=O)cc2)cc1 | – | – | – | – | half-life [7]: 336 min |
| COc1ccc(-c2cc(C(F)F)nn2-c2ccc(S(N)(=O)=O)cc2)cc1 | 13.7 | 0.01 | – | 36 | – |
| NS(=O)(=O)c1ccc(-n2nc(C(F)(F)F)cc2-c2ccc(Cl)cc2)cc1 | 5.4 | 0.07 | – | – | half-life [8]: 4.88 days; ED50 [9]: 6.6 mg/kg |
| Cc1ccc(-c2cc(C(F)F)nn2-c2ccc(S(N)(=O)=O)cc2)cc1 | 2.4 | 0.35 | – | 37.3 | half-life [10]: 198 min |
| COc1ccc2c(c1)c(CC(=O)O)c(C)n2C(=O)c1ccc(Cl)cc1 [INDOMETHACIN] | 1.15 | 0.11 | – | 4.1 | Ulceration [2]: 7 mg/kg |
| NS(=O)(=O)c1ccc(-n2nc(C(F)F)cc2-c2ccc(Cl)cc2)cc1 | 13 | 0.63 | 270 | 7.7 | – |
| COc1ccc(-c2cc(C(F)F)nn2-c2ccc(S(N)(=O)=O)cc2)cc1F [DERACOXIB] | 18.6 | 0.05 | 210 | 33 | – |
| CN1C(C(=O)Nc2ccccn2)=C(O)c2ccccc2S1(=O)=O [PIROXICAM] | 2.4 | – | – | – | inhibition in vivo at 10 mg/kg [3]: 52% |
| CS(=O)(=O)c1ccc(-n2nc(C(F)(F)F)cc2-c2ccc(F)cc2)cc1 [SC-58125] | 10.5 | 0.41 | 13300 | 58.3 | – |
| N#Cc1cc(-c2ccc(F)cc2)n(-c2ccc(S(N)(=O)=O)cc2)n1 | 7.5 | 0.51 | – | 67.1 | – |
